Measured values published in paper PMC6397271 (Scientific Reports, 2019).
≈ marks a conversion by molar mass, not a printed value. Where two headings read alike, the source gives them in different places.

Tests used:
[1] = system: Enterococcus faecalis 3937158; assay: microbe, parasite or virus in culture; format: cell-based; conditions: for MIC: raw MIC
Excerpt: (§1) Three bacterial strains of MRSA (N315, 12673, 6347) and two of Enterococcus spp. (E. faecium, E. faecalis) were used. With respect to MRSA, N315 represented a reference Van-susceptible strain (GenBank GCA_00000645.1) isolated from a patient while 12673 (Van-intermediately susceptible) and 6347 (a h-VISA which appears at frequency of <10^−5 to 10^−6 is composed of two subpopulations of bacteria: one susceptible and one intermediately resistant)[38] were clinical strains obtained from patients of The Clinical University Centre of Gdańsk (UCK). […] The clinical strain isolates originated from the collection of the Department of Pharmaceutical Technology and Biochemistry, Faculty of Chemistry, Gdańsk University of Technology.
(§2) The strains were grown in Mueller-Hinton broth (MH cation-adjusted, Becton Dickinson) or Brain Heart Infusion broth (BHI, Becton Dickinson), respectively. The cultivation was carried out in an aerobic atmosphere at 37 °C for 24 hours and, afterwards, the bacterial cultures were diluted in geometric progression with a proper broth. Next, 100 µl of each dilution was inoculated in an agar plate and incubated at 37 °C for 24 h. The next procedures included determination of Colony Forming Units (CFU)/ml and minimal inhibitory concentration (MIC) of the compounds in question. The latter procedure was carried out according to the microbroth dilution technique using 96-well plates. The MICs were evaluated by using the metabolic assay based on the resazurin dye. The assay was performed in triplicates.

[2] = system: Enterococcus faecium 3934825; assay: microbe, parasite or virus in culture; format: cell-based; conditions: for MIC: raw MIC
Excerpt: as §1, §2

sheep erythrocytes = assay: Erythrocyte lysis assay; format: cell-based; conditions: 37 °C, 1 hour, A450 nm; for cell lysis (haemolysis): 10^8 cells/ml, vs 4% Triton X-100, triplicates
Method: The protocol of the lysis assay is presented below.
To obtain sheep erythrocytes, 5 ml of fresh blood was centrifuged at 1000 × g for 10 min and washed 3 times with 0.9% NaCl. Cell suspension (final concentration of 10^8 cells/ml) in a volume of 75 µl was added to each well of the 96-well microtiter plate and incubated at 37 °C in the presence of the tested compounds. The range of their concentrations was 100–0.049 µM (diluted in saline solution), which included that of MIC values for the tested strains of the bacteria.
Plates with samples were incubated at 37 °C for 1 hour and then centrifuged at 1000 × g for 10 min to separate the unlysed erythrocytes. Next, the supernatant was transferred to a new plate. The absorbance (A) was measured spectrophotometrically at 450 nm of wavelength. The experiments were performed in triplicates.
The haemolysis percentage was calculated according to the equation presented by Sharma et al.[43]. The percentage of haemolysis = [(A450nm of test compound treated sample-A450nm of buffer treated sample)/(A450nm of 4%TritonX-100 treated samples-A450nm of buffer treated sample)] × 100.

S. aureus MRSA 12673 = assay: microbe, parasite or virus in culture; format: cell-based, Staphylococcus aureus; conditions: for MIC: raw MIC
Excerpt: as §1, §2

[3] = system: S. aureus MRSA hetero-VISA 6347; assay: microbe, parasite or virus in culture; format: cell-based, Staphylococcus aureus; conditions: for MIC: raw MIC
Excerpt: as §1, §2

S. aureus MRSA N315 = assay: microbe, parasite or virus in culture; format: cell-based, Staphylococcus aureus
Excerpt: as §1, §2

[4] = first block, test a, repetition 1, read-out: MIC1a
[5] = first block, test a, repetition 2, read-out: MIC2a
[6] = first block, test a, repetition 3, read-out: MIC3a
[7] = first block, test b, repetition 1, read-out: MIC1b
[8] = first block, test b, repetition 2, read-out: MIC2b
[9] = first block, test b, repetition 3, read-out: MIC3b
[10] = test a, repetition 1, read-out: MIC1a
[11] = test a, repetition 2, read-out: MIC2a
[12] = test a, repetition 3, read-out: MIC3a
[13] = test b, repetition 1, read-out: MIC1b
[14] = test b, repetition 2, read-out: MIC2b
[15] = test b, repetition 3, read-out: MIC3b
[16] = same test as μM value, mean ± SD

CC[C@H](C)[C@H](NC(=O)[C@H](CCCCN)NC(=O)[C@H](CCCCN)NC(=O)[C@H](C)NC(=O)[C@H](CC(C)C)NC(=O)[C@H](C)NC(=O)[C@H](C)NC(=O)[C@H](CC(C)C)NC(=O)[C@H](C)NC(=O)[C@H](CCCCN)NC(=O)[C@H](CC(C)C)NC(=O)[C@H](CC(N)=O)NC(=O)[C@@H](NC(=O)[C@H](CCCCN)NC(=O)CNC(=O)[C@H](CC(C)C)NC(=O)[C@H](CC(C)C)NC(=O)[C@H](Cc1ccc(O)cc1)NC(=O)CNC(=O)[C@H](C)NC(=O)c1cn(CCOCCOCCOCCNC(=O)[C@H]2NC(=O)[C@H]3NC(=O)[C@H](NC(=O)[C@@H]4NC(=O)[C@H](CC(N)=O)NC(=O)[C@H](NC(=O)[C@@H](CC(C)C)NC)[C@H](O)c5ccc(c(Cl)c5)Oc5cc4cc(c5O[C@@H]4O[C@H](CO)[C@@H](O)[C@H](O)[C@H]4O[C@H]4C[C@](C)(N)[C@H](O)[C@H](C)O4)Oc4ccc(cc4Cl)[C@H]3O)c3ccc(O)c(c3)-c3c(O)cc(O)cc32)nn1)[C@@H](C)CC)C(=O)N[C@@H](CC(C)C)C(N)=O [conjugate I, Van-PEG3-TP10]
MIC [1, 4]: 6.25 µM (≈ 24.3 µg/mL) | MIC [1, 5]: 3.1 µM (≈ 12 µg/mL) | MIC [1, 6]: 6.25 µM (≈ 24.3 µg/mL) | MIC [1, 7]: 6.25 µM (≈ 24.3 µg/mL) | MIC [1, 8]: 6.25 µM (≈ 24.3 µg/mL) | MIC [1, 9]: 3.1 µM (≈ 12 µg/mL) | MIC [1, 10]: 24.27 µM (≈ 94.2 µg/mL) | MIC [1, 11]: 12.14 µM (≈ 47.1 µg/mL) | MIC [1, 12]: 24.27 µM (≈ 94.2 µg/mL) | MIC [1, 13]: 24.27 µM (≈ 94.2 µg/mL) | MIC [1, 14]: 24.27 µM (≈ 94.2 µg/mL) | MIC [1, 15]: 12.14 µM (≈ 47.1 µg/mL) | MIC in (μg/ml) [1, 16]: 24.3 ± 6.3 µg/mL (≈ 6.26 µM) | MIC [2, 4]: 50 µM (≈ 194 µg/mL) | MIC [2, 5]: 50 µM (≈ 194 µg/mL) | MIC [2, 6]: 50 µM (≈ 194 µg/mL) | MIC [2, 7]: 25 µM (≈ 97.1 µg/mL) | MIC [2, 8]: 50 µM (≈ 194 µg/mL) | MIC [2, 9]: 50 µM (≈ 194 µg/mL) | MIC [2, 10]: 194.2 µM (≈ 754 µg/mL) | MIC [2, 11]: 194.2 µM (≈ 754 µg/mL) | MIC [2, 12]: 194.2 µM (≈ 754 µg/mL) | MIC [2, 13]: 97.1 µM (≈ 377 µg/mL) | MIC [2, 14]: 194.2 µM (≈ 754 µg/mL) | MIC [2, 15]: 194.2 µM (≈ 754 µg/mL) | MIC in (μg/ml) [2, 16]: 194.2 ± 39.6 µg/mL (≈ 50 µM) | cell lysis (haemolysis) (sheep erythrocytes; 12.5 µM): 15% | cell lysis (haemolysis) (sheep erythrocytes; 100 µM): 93% | hemolysis at MIC concentrations (sheep erythrocytes; 6.25–0.78 μM): lack of hemolysis | MIC (S. aureus MRSA 12673; [4]): 1.56 µM (≈ 6.06 µg/mL) | MIC (S. aureus MRSA 12673; [5]): 3.12 µM (≈ 12.1 µg/mL) | MIC (S. aureus MRSA 12673; [6]): 1.56 µM (≈ 6.06 µg/mL) | MIC (S. aureus MRSA 12673; [7]): 1.56 µM (≈ 6.06 µg/mL) | MIC (S. aureus MRSA 12673; [8]): 3.12 µM (≈ 12.1 µg/mL) | MIC (S. aureus MRSA 12673; [9]): 3.12 µM (≈ 12.1 µg/mL) | MIC (S. aureus MRSA 12673; [10]): 6.06 µM (≈ 23.5 µg/mL) | MIC (S. aureus MRSA 12673; [11]): 6.06 µM (≈ 23.5 µg/mL) | MIC (S. aureus MRSA 12673; [12]): 6.06 µM (≈ 23.5 µg/mL) | MIC (S. aureus MRSA 12673; [13]): 6.06 µM (≈ 23.5 µg/mL) | MIC (S. aureus MRSA 12673; [14]): 12.12 µM (≈ 47.1 µg/mL) | MIC (S. aureus MRSA 12673; [15]): 12.12 µM (≈ 47.1 µg/mL) | MIC in (μg/ml) (S. aureus MRSA 12673; [16]): 6.1 ± 3.1 µg/mL (≈ 1.57 µM) | MIC [3, 4]: 1.56 µM (≈ 6.06 µg/mL) | MIC [3, 5]: 1.56 µM (≈ 6.06 µg/mL) | MIC [3, 6]: 0.78 µM (≈ 3.03 µg/mL) | MIC [3, 7]: 1.56 µM (≈ 6.06 µg/mL) | MIC [3, 8]: 1.56 µM (≈ 6.06 µg/mL) | MIC [3, 9]: 1.56 µM (≈ 6.06 µg/mL) | MIC [3, 10]: 6.06 µM (≈ 23.5 µg/mL) | MIC [3, 11]: 6.06 µM (≈ 23.5 µg/mL) | MIC [3, 12]: 3.03 µM (≈ 11.8 µg/mL) | MIC [3, 13]: 6.06 µM (≈ 23.5 µg/mL) | MIC [3, 14]: 6.06 µM (≈ 23.5 µg/mL) | MIC [3, 15]: 6.06 µM (≈ 23.5 µg/mL) | MIC in (μg/ml) [3, 16]: 6.1 ± 1.2 µg/mL (≈ 1.57 µM) | MIC (S. aureus MRSA N315; microbroth dilution, 96-well, resazurin, 37 °C, 24 h, mean ± SD, at least three independent experiments in triplicates): 1.6 ± 0.9 µM (≈ 6.21 µg/mL) | MIC (S. aureus MRSA N315; microbroth dilution, 96-well, resazurin, 37 °C, 24 h, mean ± SD, at least three independent experiments in triplicates, read-out: MIC): 1.6 µM (≈ 6.21 µg/mL) | MIC (S. aureus MRSA N315; raw MIC, first block, test a, repetition 1, read-out: MIC1a): 1.56 µM (≈ 6.06 µg/mL) | MIC (S. aureus MRSA N315; raw MIC, first block, test a, repetition 2, read-out: MIC2a): 3.12 µM (≈ 12.1 µg/mL) | MIC (S. aureus MRSA N315; raw MIC, first block, test a, repetition 3, read-out: MIC3a): 1.56 µM (≈ 6.06 µg/mL) | MIC (S. aureus MRSA N315; raw MIC, first block, test b, repetition 1, read-out: MIC1b): 3.125 µM (≈ 12.1 µg/mL) | MIC (S. aureus MRSA N315; raw MIC, first block, test b, repetition 2, read-out: MIC2b): 1.56 µM (≈ 6.06 µg/mL) | MIC (S. aureus MRSA N315; raw MIC, first block, test b, repetition 3, read-out: MIC3b): 1.56 µM (≈ 6.06 µg/mL) | MIC (S. aureus MRSA N315; raw MIC, test a, repetition 1, read-out: MIC1a): 6.06 µM (≈ 23.5 µg/mL) | MIC (S. aureus MRSA N315; raw MIC, test a, repetition 2, read-out: MIC2a): 12.12 µM (≈ 47.1 µg/mL) | MIC (S. aureus MRSA N315; raw MIC, test a, repetition 3, read-out: MIC3a): 6.06 µM (≈ 23.5 µg/mL) | MIC (S. aureus MRSA N315; raw MIC, test b, repetition 1, read-out: MIC1b): 6.06 µM (≈ 23.5 µg/mL) | MIC (S. aureus MRSA N315; raw MIC, test b, repetition 2, read-out: MIC2b): 6.06 µM (≈ 23.5 µg/mL) | MIC (S. aureus MRSA N315; raw MIC, test b, repetition 3, read-out: MIC3b): 6.06 µM (≈ 23.5 µg/mL) | MIC in (μg/ml) (S. aureus MRSA N315; [16]): 6.1 ± 2.5 µg/mL (≈ 1.57 µM)
